Data taken from ChEMBL document CHEMBL3044667, “Insecticidal activities of crude extracts and phospholipids from Chenopodium ficifolium against melon and cotton aphid, Aphis gossypii” (2010).
Calls of active or inactive are those of the source. The rule behind the calls is not given here.

Assays:
Aphis gossypii [1] = experiment: Insecticidal activity against Aphis gossypii (cotton aphid) infested fourth-leaf stage cucumber seedlings followed by compound exposure at 1000 ug/ml assessed as induction of insect death on leaves after 48 hr post compound treatment relative to untreated control; type: functional, organism-based
Aphis gossypii [2] = experiment: Insecticidal activity against Aphis gossypii (cotton aphid) infested fourth-leaf stage cucumber seedlings followed by compound exposure assessed as insect control after 48 hr post compound treatment relative to untreated control; type: functional, organism-based

For `CCCCCCCCCCCCC=CCC(=O)OC(COC(=O)CCCCCCCCCCCCCCC)COP(=O)(O)OCC(O)CO` (configuration not stated), the Activity (Aphis gossypii [1]) was “Active” and the Activity (Aphis gossypii [2]) was “Dose-dependent effect”.
